In ChEMBL document CHEMBL1152457, “Antimicrobial drug resistance of Salmonella enterica serovar typhi in asia and molecular mechanism of reduced susceptibility to the fluoroquinolones” (2007):
≈ marks a conversion by molar mass, not a printed value. Calls of active or inactive are those of the source. The calls are words filed in the database; no cut-off is given here.

Columns and labels:
[1] = system: Salmonella enterica subsp. enterica; assay: Antimicrobial activity against multidrug-resistant Salmonella enterica Serovar Typhi isolate nar 102 harboring DNA gyrase A S83F mutation by disk diffusion method in presence of plasmid mediated quinolone-resistant gene qnrA and qnrS; assay type: functional, Salmonella enterica subsp. enterica serovar Typhi
[2] = system: Salmonella enterica subsp. enterica; assay: Antimicrobial activity against multidrug-resistant Salmonella enterica Serovar Typhi isolate DT60 harboring DNA gyrase A S83F mutation by disk diffusion method; assay type: functional, Salmonella enterica subsp. enterica serovar Typhi
[3] = system: Salmonella enterica subsp. enterica; assay: Antimicrobial activity against Salmonella enterica Serovar Typhi isolate nar 108 harboring DNA gyrase A S83F mutation by disk diffusion method in presence of plasmid mediated quinolone-resistant gene qnrA and qnrS; assay type: functional, Salmonella enterica subsp. enterica serovar Typhi
[4] = system: Salmonella enterica subsp. enterica; assay: Antimicrobial activity against multidrug-resistant Salmonella enterica Serovar Typhi isolate AG7 harboring DNA gyrase A S83F mutation by disk diffusion method; assay type: functional, Salmonella enterica subsp. enterica serovar Typhi
[5] = system: Salmonella enterica subsp. enterica; assay: Antimicrobial activity against multidrug-resistant Salmonella enterica Serovar Typhi isolate ipt 32 harboring DNA gyrase A S83F mutation by disk diffusion method; assay type: functional, Salmonella enterica subsp. enterica serovar Typhi
[6] = system: Salmonella enterica subsp. enterica; assay: Antimicrobial activity against Salmonella enterica Serovar Typhi isolate AG258 harboring DNA gyrase A S83F mutation by disk diffusion method in presence of plasmid mediated quinolone-resistant gene qnrA and qnrS; assay type: functional, Salmonella enterica subsp. enterica serovar Typhi
[7] = system: Salmonella enterica subsp. enterica; assay: Antimicrobial activity against multidrug-resistant Salmonella enterica Serovar Typhi isolate BL 3769 harboring DNA gyrase A S83F mutation by disk diffusion method in presence of plasmid mediated quinolone-resistant gene qnrA and qnrS; assay type: functional, Salmonella enterica subsp. enterica serovar Typhi
[8] = system: Salmonella enterica subsp. enterica; assay: Antimicrobial activity against multidrug-resistant Salmonella enterica Serovar Typhi isolate DT42 harboring DNA gyrase A S83F mutation by disk diffusion method; assay type: functional, Salmonella enterica subsp. enterica serovar Typhi
[9] = system: Salmonella enterica subsp. enterica; assay: Antimicrobial activity against multidrug-resistant Salmonella enterica Serovar Typhi isolate DT54 harboring DNA gyrase A S83F mutation by disk diffusion method; assay type: functional, Salmonella enterica subsp. enterica serovar Typhi
[10] = system: Salmonella enterica subsp. enterica; assay: Antimicrobial activity against multidrug-resistant Salmonella enterica Serovar Typhi isolate DT9 harboring DNA gyrase A S83F mutation by disk diffusion method; assay type: functional, Salmonella enterica subsp. enterica serovar Typhi
[11] = system: Salmonella enterica subsp. enterica; assay: Antimicrobial activity against multidrug-resistant Salmonella enterica Serovar Typhi isolate nar 28 harboring DNA gyrase A S83F mutation by disk diffusion method; assay type: functional, Salmonella enterica subsp. enterica serovar Typhi
[12] = system: Salmonella enterica subsp. enterica; assay: Antimicrobial activity against multidrug-resistant Salmonella enterica Serovar Typhi isolate CT61 harboring DNA gyrase A S83F mutation by disk diffusion method in presence of plasmid mediated quinolone-resistant gene qnrA and qnrS; assay type: functional, Salmonella enterica subsp. enterica serovar Typhi
[13] = system: Salmonella enterica subsp. enterica; assay: Antimicrobial activity against multidrug-resistant Salmonella enterica Serovar Typhi isolate DT40 harboring DNA gyrase A S83F mutation by disk diffusion method; assay type: functional, Salmonella enterica subsp. enterica serovar Typhi
[14] = system: Salmonella enterica subsp. enterica; assay: Antimicrobial activity against multidrug-resistant Salmonella enterica Serovar Typhi isolate DT48 harboring DNA gyrase A S83F mutation by disk diffusion method; assay type: functional, Salmonella enterica subsp. enterica serovar Typhi
[15] = system: Salmonella enterica subsp. enterica; assay: Antimicrobial activity against multidrug-resistant Salmonella enterica Serovar Typhi isolate DT49 harboring DNA gyrase A S83F mutation by disk diffusion method; assay type: functional, Salmonella enterica subsp. enterica serovar Typhi
[16] = system: Salmonella enterica subsp. enterica; assay: Antimicrobial activity against Salmonella enterica Serovar Typhi isolate CT144 harboring DNA gyrase A D87G mutation assessed as decrease in bacterial population at 4 times MIC after 30 mins by time-kill analysis; assay type: functional, organism-based
[17] = system: Salmonella enterica subsp. enterica; assay: Antimicrobial activity against Salmonella enterica Serovar Typhi isolate CT144 harboring DNA gyrase A D87G mutation assessed as complete cell killing at 4 times MIC after 6 hrs by time-kill analysis; assay type: functional, organism-based
[18] = system: Salmonella enterica subsp. enterica; assay: Antimicrobial activity against multidrug-resistant Salmonella enterica Serovar Typhi isolate DT18 harboring DNA gyrase A S83F and D87G mutation assessed as decrease in viable count at 16 times MIC after 4 hrs by time-kill analysis; assay type: functional, organism-based
[19] = system: Salmonella enterica subsp. enterica; assay: Antimicrobial activity against multidrug-resistant Salmonella enterica Serovar Typhi isolate DT18 harboring DNA gyrase A S83F and D87G mutation assessed as decrease in viable count at 8 times MIC after 4 hrs by time-kill analysis; assay type: functional, organism-based
[20] = system: Salmonella enterica subsp. enterica; assay: Antimicrobial activity against multidrug-resistant Salmonella enterica Serovar Typhi isolate HTD 798 harboring DNA gyrase A S83F mutation assessed as decrease in bacterial population at 4 times MIC after 30 mins by time-kill analysis; assay type: functional, organism-based
[21] = system: Salmonella enterica subsp. enterica; assay: Antimicrobial activity against multidrug-resistant Salmonella enterica Serovar Typhi isolate HTD 798 harboring DNA gyrase A S83F mutation assessed as complete cell killing at 4 times MIC after 6 hrs by time-kill analysis; assay type: functional, organism-based
[22] = system: Salmonella enterica subsp. enterica; assay: Antimicrobial activity against Salmonella enterica Serovar Typhi isolate CT76 harboring wild type DNA gyrase A assessed as decrease in bacterial population at 4 times MIC after 30 mins by time-kill analysis; assay type: functional, organism-based
[23] = system: Salmonella enterica subsp. enterica; assay: Antimicrobial activity against Salmonella enterica Serovar Typhi isolate CT76 harboring wild type DNA gyrase A assessed as complete cell killing at 4 times MIC after 6 hrs by time-kill analysis; assay type: functional, organism-based
[24] = system: Salmonella enterica subsp. enterica; assay: Antimicrobial activity against Salmonella enterica Serovar Typhi isolate AG3 harboring DNA gyrase A S83F mutation by disk diffusion method; assay type: functional, Salmonella enterica subsp. enterica serovar Typhi
[25] = system: Salmonella enterica subsp. enterica; assay: Antimicrobial activity against multidrug-resistant Salmonella enterica Serovar Typhi isolate HTD 798 harboring DNA gyrase A S83F mutation assessed as complete cell killing at 4 times MIC after 4 hrs by time-kill analysis; assay type: functional, organism-based
[26] = system: Salmonella enterica subsp. enterica; assay: Antimicrobial activity against Salmonella enterica Serovar Typhi isolate CT76 harboring wild type DNA gyrase A by time-kill analysis; assay type: functional, organism-based
[27] = system: Salmonella enterica subsp. enterica; assay: Antimicrobial activity against multidrug-resistant Salmonella enterica Serovar Typhi isolate DT18 harboring DNA gyrase A S83F and D87G mutation assessed as decrease in viable count at 4 times MIC after 4 hrs by time-kill analysis; assay type: functional, organism-based
[28] = system: Salmonella enterica subsp. enterica; assay: Antimicrobial activity against Salmonella enterica Serovar Typhi isolate CT144 harboring DNA gyrase A D87G mutation assessed as complete cell killing at 4 times MIC after 4 hrs by time-kill analysis; assay type: functional, organism-based
[29] = system: Salmonella enterica subsp. enterica; assay: Antimicrobial activity against multidrug-resistant Salmonella enterica Serovar Typhi isolate HTD 798 harboring DNA gyrase A S83F mutation assessed as decrease in viable count at 4 times MIC after 4 hrs by time-kill analysis; assay type: functional, organism-based
[30] = system: Salmonella enterica subsp. enterica; assay: Antimicrobial activity against Salmonella enterica Serovar Typhi isolate CT144 harboring DNA gyrase A D87G mutation assessed as decrease in viable count at 4 times MIC after 4 hrs by time-kill analysis; assay type: functional, organism-based

Compound | MIC [1] [µg/mL] | MIC [2] [µg/mL] | MIC [3] [µg/mL] | MIC [4] [µg/mL] | MIC [5] [µg/mL] | MIC [6] [µg/mL] | MIC [7] [µg/mL] | MIC [8] [µg/mL] | MIC [9] [µg/mL] | MIC [10] [µg/mL] | MIC [11] [µg/mL] | MIC [12] [µg/mL] | MIC [13] [µg/mL] | MIC [14] [µg/mL] | MIC [15] [µg/mL] | MIC [24] [µg/mL] | also measured
O=C(O)c1cn(C2CC2)c2cc(N3CCNCC3)c(F)cc2c1=O [CIPROFLOXACIN] | 0.125 | 0.25 (≈ 0.754 µM) | 0.25 | 0.5 (≈ 1.51 µM) | 0.5 (≈ 1.51 µM) | 0.5 | 0.25 | 0.5 (≈ 1.51 µM) | 0.5 (≈ 1.51 µM) | 0.5 (≈ 1.51 µM) | 0.5 (≈ 1.51 µM) | 0.125 | 0.38 (≈ 1.15 µM) | 0.5 (≈ 1.51 µM) | 0.5 (≈ 1.51 µM) |  | 
COc1c(N2CCNC(C)C2)c(F)cc2c(=O)c(C(=O)O)cn(C3CC3)c12 (configuration not stated) [GATIFLOXACIN] | 0.094 | 0.125 (≈ 0.333 µM) | 0.125 | 0.19 (≈ 0.506 µM) | 0.125 (≈ 0.333 µM) | 0.19 | 0.19 | 0.125 (≈ 0.333 µM) | 0.125 (≈ 0.333 µM) | 0.25 (≈ 0.666 µM) | 0.19 (≈ 0.506 µM) | 0.064 | 0.125 (≈ 0.333 µM) | 0.125 (≈ 0.333 µM) | 0.125 (≈ 0.333 µM) | 0.25 (≈ 0.666 µM) | Activity [16]: Active; Activity [17]: Active; Activity [18]: Active; Activity [19]: Active; Activity [20]: Active; Activity [21]: Active; Activity [22]: Active; Activity [23]: Active
CCn1cc(C(=O)O)c(=O)c2ccc(C)nc21 [NALIDIXIC ACID] | 128 | > 256 | 256 | > 256 | 256 (≈ 1100 µM) | > 256 | > 256 | > 256 | > 256 | > 256 | 256 (≈ 1100 µM) | 256 | > 256 | > 256 | > 256 | > 256 | 
CC1COc2c(N3CCN(C)CC3)c(F)cc3c(=O)c(C(=O)O)cn1c23 (configuration not stated) [OFLOXACIN] | 1 | 1 (≈ 2.77 µM) | 1 | 1.5 (≈ 4.15 µM) | 1 (≈ 2.77 µM) | 1.5 | 0.5 | 1 (≈ 2.77 µM) | 1 (≈ 2.77 µM) | 2 (≈ 5.53 µM) | 1 (≈ 2.77 µM) | 1 | 0.5 (≈ 1.38 µM) | 1 (≈ 2.77 µM) | 1 (≈ 2.77 µM) | 2 (≈ 5.53 µM) | Activity [25]: inactive; Activity [26]: Active; Activity [27]: inactive; Activity [28]: inactive; Activity [29]: Active; Activity [30]: Active
